Holding throughout (assay): NCI-60 cell line screen, 48 h
The subject of experiment [1] is COLO 205 colon.
For experiment [2], the system named is HCC-2998 colon.
In experiment [3] the test system is K-562 leukemia.
For experiment [4], the system named is NCI/ADR-RES ovarian.
Experiment [5] relates to SF-295 CNS.
The test system of experiment [6] is SF-539 CNS.
Experiment [7] concerns HOP-92 NSCLC.

13 compounds from PubChem BioAssay (NCI) can be followed below.

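Each compound was tested at five concentrations against cells in 96-well plates for 48 hours. GI50 = concentration required for 50% inhibition of growth. TGI denotes the concentration required for complete inhibition of growth.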

On to `O=[N+]([O-])/C=C/c1c[nH]c2ccccc12`, for which the GI50 is 15.6 µM in experiment [1]; 4.35 µM in experiment [2]; 21.7 µM in experiment [3]; 18.4 µM in experiment [4]; 14 µM in experiment [5]; 15.4 µM in experiment [6]. Further, the TGI in experiment [1] turned out to be 30.6 µM; in experiment [2] it was 12.5 µM; in experiment [3], 61 µM; in experiment [4], 40 µM; in experiment [5], 30.6 µM; in experiment [6], 35.6 µM.
With `C/C=C(\C)C(=O)O[C@H]1C=CC(=O)O[C@H]1CNC(=O)[C@H](C)O`, the GI50 in experiment [1] was 12.6 µM; in experiment [2] it was 17.7 µM; in experiment [7], 14.6 µM; in experiment [3] it was 22.3 µM; in experiment [4], 26.2 µM; in experiment [5] it was 32.6 µM. Moreover, in experiment [6], the GI50 is 19.4 µM. Also, the TGI was 29.3 µM in experiment [1]; 33.7 µM in experiment [2]; 28.9 µM in experiment [7]; more than 100 µM in experiment [3]; 81.4 µM in experiment [4]; more than 100 µM in experiment [5]. The same compound registered a TGI in experiment [6] of 35.4 µM.
`S=C(N/N=C/c1ccccn1)Nc1ccccn1`: the GI50 in experiment [1] is 0.471 µM; in experiment [2] it was 2.19 µM; in experiment [7], 0.478 µM; in experiment [3] it was 1.84 µM; in experiment [4] it was 1.74 µM; in experiment [6], 1.81 µM. The TGI was more than 100 µM in experiment [1]; more than 100 µM in experiment [2]; 6.23 µM in experiment [7]; more than 100 µM in experiment [3]; more than 100 µM in experiment [4]; 9.02 µM in experiment [6].
For `COc1nc(C)cc2c(=O)n(-c3ccccc3)n(CCCN3CCN(c4ccc(Cl)cc4)CC3)c(=O)c12`, the GI50 is more than 50 µM in experiment [1]; more than 50 µM in experiment [2]; 10 µM in experiment [7]; 35 µM in experiment [3]; more than 50 µM in experiment [4]; 29.2 µM in experiment [5]. Further, the GI50 in experiment [6] is more than 50 µM. Also, the TGI in experiment [1] was more than 50 µM; in experiment [2], more than 50 µM; in experiment [7] it was 41.6 µM; in experiment [3] it was more than 50 µM; in experiment [4], more than 50 µM; in experiment [5], more than 50 µM. The compound further showed a TGI in experiment [6] of more than 50 µM.
Take `Cn1c(=O)c2[nH]c(CS(=O)(=O)Cc3nc4c([nH]3)c(=O)n(C)c(=O)n4C)nc2n(C)c1=O`: the TGI in experiment [1], in experiment [3], in experiment [4], in experiment [5] and in experiment [6] was more than 100 µM each time.
`COC(=O)C(Nc1ccc(OC)cc1)c1ccccc1` (stereo not drawn): the TGI in experiment [1], in experiment [3], in experiment [4], in experiment [5] and in experiment [6] was more than 100 µM in each case.
Regarding `O=C(C(Br)Br)C(Br)C(Br)c1ccccc1` (stereo not drawn), the GI50 in experiment [1] was 1.65 µM; in experiment [2], 16.2 µM; in experiment [7], 6.21 µM; in experiment [3], 1.89 µM; in experiment [4], 5.23 µM; in experiment [6], 2.43 µM. The TGI came out at 3.59 µM in experiment [1]; 33 µM in experiment [2]; 19.8 µM in experiment [7]; 5.37 µM in experiment [3]; 72.4 µM in experiment [4]; 7.84 µM in experiment [6].
As to `O=C(Oc1ccc(CCl)cc1)c1ccccc1`, the GI50 in experiment [1] was 0.136 µM; in experiment [2], 0.189 µM; in experiment [7], 0.173 µM; in experiment [4], 0.2 µM; in experiment [5], 0.185 µM; in experiment [6], 0.152 µM. In addition, the TGI in experiment [1] worked out at 0.307 µM; in experiment [2], 0.385 µM; in experiment [7], 0.348 µM; in experiment [4], 0.472 µM; in experiment [5] it was 0.543 µM; in experiment [6], 0.286 µM.
As to `COc1cc2c(/C=C3/C(=O)Nc4ccccc43)c(Cl)n(Cc3ccccc3[N+](=O)[O-])c2cc1C`, the GI50 in experiment [1] was 3.18 µM; in experiment [7] it was 7.25 µM; in experiment [4], 4.71 µM; in experiment [5], 6.9 µM; in experiment [6], 14.3 µM. Also, the TGI came to 15.5 µM in experiment [1]; 26.8 µM in experiment [7]; 20.3 µM in experiment [4]; 22.8 µM in experiment [5]; 40.4 µM in experiment [6].
Consider `CC(=O)OC(C)(C)/C=C/C(=O)[C@](C)(O)[C@H]1[C@H](O)C[C@@]2(C)[C@@H]3CC=C4[C@@H](C[C@H](O)C(=O)C4(C)C)[C@]3(C)C(=O)C[C@]12C`, for which the TGI is 4.45 µM in experiment [2]; 16.8 µM in experiment [3]; 15.2 µM in experiment [4]; 0.0304 µM in experiment [5]; less than 0.01 µM in experiment [6].
For `CC[N+](CC)(CC)CCCn1c2c(c3ccccc3c1=O)C(=O)c1ccccc1-2`, the GI50 is 23.1 µM in experiment [1]; 5.62 µM in experiment [2]; 17.9 µM in experiment [7]; 18.7 µM in experiment [3]; 6.5 µM in experiment [4]; 7.38 µM in experiment [5]. Moreover, the TGI in experiment [1] was more than 100 µM; in experiment [2], 20.9 µM; in experiment [7], more than 100 µM; in experiment [3], more than 100 µM; in experiment [4], 27.2 µM; in experiment [5] it was 57.9 µM.
As for `CC1(C)N=C(N)N=C(N)N1c1cc(Cl)ccc1Cl`, the GI50 was more than 100 µM in experiment [1]; more than 100 µM in experiment [2]; 55.3 µM in experiment [3]; more than 100 µM in experiment [4]; more than 100 µM in experiment [5]; more than 100 µM in experiment [6]. Besides, the TGI in experiment [1], in experiment [2], in experiment [3], in experiment [4], in experiment [5] and in experiment [6] was more than 100 µM throughout.
For `COc1ccc2[nH]c(Cl)c(/C=C3/C(=O)N(C)c4ccccc43)c2c1`, the GI50 in experiment [1] was 21.7 µM; in experiment [7], 91.3 µM; in experiment [4], more than 100 µM; in experiment [5] it was more than 100 µM. Further, the TGI in experiment [1], in experiment [7], in experiment [4] and in experiment [5] was more than 100 µM throughout.
